According to US6528510B1, “HIV protease inhibitors” (Warner-Lambert Company, priority 1998, dated 2003):
Like-named read-outs stand apart in the source and are kept apart here.

Assays:
[1] = test system: HIV infected lymphocyte derived CEM cells; assay: Cellular infection assay in CEM cells, XTT cytopathic procedure (EC50); conditions: for TI (therapeutic index, TC50/EC50): CEM cells; for EC50: read-out: Antiviral Efficacy EC50
Experimental: (§1) Compound concentrations were 0.32, 1, 3.2, 10, 32, and 100 uM.

[2] = test system: uninfected CEM cells; assay: Cellular toxicity in uninfected CEM cells, XTT (TC50)
Experimental: as §1

[3] = target: T1, Recombinant HIV-1 protease (Human immunodeficiency virus type 1 group M subtype B, UniProt P04585); assay: HIV protease assay (Ki determination, HPLC readout of substrate III cleavage); assay type: biochemical
T1 construct: Recombinant HIV-1 protease (>96% purity); purchased Bachem Bioscience, Inc. (King of Prussia, Pa.)
Experimental: Recombinant HIV-1 protease (>96% purity) and HIV protease substrate III (the undecapeptide H-His-Lys-Ala-Arg-Val-Leu-Nph-Glu-Ala-Nle-Ser-NH2, 97% purity) were purchased from Bachem Bioscience, Inc. (King of Prussia, Pa.).
The methods employed follow the procedures of Tummino, et al., Archives of Biochemistry and Biophysics, 1995;316:523). […] (total volume, […]). […] The final inhibitor concentrations used were 0 (0.1, 0.2, in some experiments), 0.5, 1, 2, 5, 10, 20, 50, and 100 μM. The solution was mixed, incubated for 5 minutes and the reaction quenched by addition of trifluoracetic acid, 2% final. The (leu-p-nitro-phe) bond of the substrate is cleaved by the enzyme and substrate arid products separated by reverse-phase HPLC. Absorbance was measured at 220 nm, peak areas determined, and percentage conversion to product used to calculate percentage control (=[% conversion (+inhibitor)/% conversion (−inhibitor)]×100).

[4] = Dog blood levels after oral dosing; assay type: in vivo; conditions: plasma, dogs, oral dose of 10 mg/kg; for half-life: read-out: T 1/2 (half life) (converted)
Experimental: (§2) The procedure for pharmacokinetics analysis in dogs and rats was similar. For dog studies, two dogs received a single oral 10 mg/kg dose of the HIV protease inhibitor as a solution. The protease inhibitor was dissolve in 0.1N NaOH followed by buffering or diluting with isotonic phosphate buffer or water depending on solubility. For rat studies. two male rats received a single oral 10 mg/kg gavage dose of the HIV protease inhibitor suspended in 0.5% methylcellulose. For the IV administration, the compounds were dissolved in 0.1N sodium hydroxide at a concentration of 10 mg/ml. The IV dose was given bolus. Blood samples were collected prior to dosing and at 0.25, 0.5, 1, 1.5, 2, 3, 4, 8, 12, and 24 hours postdose. Plasma samples were analyzed for the HIV protease inhibitor using a HPLC procedure. The method involved plasma protein precipitation with acetonitrile, reverse-phase chromatographic separation of the HIV protease inhibitor and internal standard, and quantitation by UV detection. Some plasma samples were concentrated by evaporation prior to injection. Pharmacokinetic parameters were determined by noncompartmental analysis of individual rat-plasma concentration-time curves using WinNonlin. Maximum concentration (Cmax) and time for these to occur (tmax) were recorded as observed. Area under concentration-time curve (AUC) values were obtained using the linear trapezoidal rule.

[5] = Rat blood levels after oral dosing; assay type: in vivo; conditions: male, plasma, rats, oral dose of 10 mg/kg; for Cmax: read-out: Cmax (maximum concentration reached within the plasma); for half-life: read-out: T 1/2 (half life) (converted)
Experimental: as §2

[6] = Rat blood levels after IV dosing; assay type: in vivo; conditions: plasma, rats, IV dose of 10 mg/kg; for half-life: read-out: T 1/2 (half life) (converted)
Experimental: as §2

[7] = Mouse blood levels after oral dosing; assay type: in vivo, Charles River CD-1 mice; conditions: CD-1, mouse, plasma, mice, oral dose of 25 mg/kg; for Cmax: read-out: Cmax (maximum concentration reached within the plasma); for half-life: read-out: T 1/2 (half life) (converted)
Experimental: Charles River CD-1 mice were dosed with a 25 mg/kg drug solution orally by gavage. For oral dosing the compounds were dissolved in 0.1N NaOH (20% final volume) and then 0.5% methylcellulose (80% final volume) was added. Blood was drawn and pooled from 5 mice at each time point via heart puncture and was placed in a 15 mL centrifuge tube containing heparin. The plasma stored in 200 μL aliquots at −80° C. until assayed.
Plasma was thawed at room temperature and then 400 μL of acetonitrile was added to each vial and vortexed. Following centrifugation the supernatant was removed and evaporated in a nitrogen evaporator at 48° C. Residue was then resolublized in 200 μL of a 75% water/25% CH3CN solution for HPLC analysis. HPLC analysis used a Zorbax RX-C8 column (4.6×150 mm) with a 25 mM potassium phosphate buffer with 0.1% TFA, pH 3.0. Mobile phases consisted of varying percentages of two buffer mixtures: Buffer A—90% buffer, 10% CH3CN, and Buffer B—30% buffer, 70% CH3CN.
A standard curve ranging from 0.5 to 50 μg/mL was used for each drug tested. Ten times final concentration solutions of drug in water were prepared from stock solutions of 1 mg/mL drug in DMSO. The final 1:10 dilution was then done in mouse plasma obtained from mice described above.

[8] = Cellular toxicity in uninfected CEM cells, XTT (TC50); conditions: human, uninfected CEM cells (lymphocyte derived)
Experimental: as §1

[9] = test system: HIV infected lymphocyte derived CEM cells; conditions: as disclosed by Hagen et al., J. Med. Chem. 1997; cited from earlier work
[10] = as disclosed by Vander Roest et al., ICAAC 1997, relative to related polar substituted derivatives; cited from earlier work
[11] = recombinant HIV-1 protease, read-out: Inhib of HIV Protease KI
[12] = read-out: Antiviral Efficacy TC50, uninfected CEM cells
[13] = Human immunodeficiency virus 1, CCRF-CEM

| Compound | TI (therapeutic index, TC50/EC50) [1] | EC50 ([1]; HIV infected CEM cells) | CC50 [2] | Ki [3, 11] | CC50 [2, 12] | Cmax [4] | half-life [4] | Cmax [5] | half-life [5] | EC50 [1, 13] | C0 [6] | half-life [6] | Cmax [7] | half-life [7] | CC50 [8] | Ki [3] | antiviral activity [9] | pharmacokinetics in mice [10] |
| --- | --- | --- | --- | --- | --- | --- | --- | --- | --- | --- | --- | --- | --- | --- | --- | --- | --- | --- |
| 3-(2-Amino-5-isopropyl-benzothiazol-6-yl-sulfanyl)-6-[2-(4-fluoro-phenyl)-ethyl]-phenethyl-4-hydroxy-6-isopropyl-5,6-dihydro-pyran-2-one [Example 16] | 10.4 | 11000 nM | 114000 nM |  |  |  |  |  |  |  |  |  |  |  |  |  |  |  |
| 3-(4-Amino-2-tert-butyl-5-methyl-phenylsulfanyl)-6-(2-furan-3-yl-ethyl)-4-hydroxy-6-isopropyl-5,6-dihydro-pyran-2-one [Example 36] | 77 | 2200 nM |  | 1.7 nM | 170000 nM |  |  |  |  |  |  |  |  |  |  |  |  |  |
| Cc1cc(SC2=C(O)C[C@@](CCc3ccsc3)(C(C)C)OC2=O)c(C(C)(C)C)cc1CO [Example 12, (S)-3-(2-tert-Butyl-4-hydroxymethyl-5-methyl-phenylsulfanyl)-4-hydroxy-6-isopropyl-6-(2-thiophen-3-yl-ethyl)-5,6-dihydro-pyran-2-one] | 650 |  |  | 0.07 nM |  | 149 µM | 1.75 h | 30 µM | 11.5 h | 140 nM | 160 µM | 12 h | 95 µM | 9.5 h | 91000 nM |  |  |  |
| CC(C)[C@]1(CCc2ccccc2)CC(O)=C(Sc2cc3sc(N)nc3cc2C(C)(C)C)C(=O)O1 [Example 13, (S)-3-(2-Amino-5-tert-butyl-benzothiazol-6-ylsulfanyl)-4-hydroxy-6-isopropyl-6-phenethyl-5,6-dihydro-pyran-2-one] | 152 |  |  |  |  |  |  | 5.1 µM | 8.6 h | 280 nM |  |  |  |  | 42000 nM |  |  |  |
| Cc1cc(SC2=C(O)CC(CCc3nccs3)(C(C)C)OC2=O)c(C(C)(C)C)cc1CO (stereo not shown) [Example 25, 3-(2-tert-Butyl-4-hydroxymethyl-5-methyl-phenylsulfanyl)-4-hydroxy-6-isopropyl-6-(2-thiazol-2-yl-ethyl)-5,6-dihydro-pyran-2-one] | 308 |  |  | 0.57 nM |  |  |  | 6 µM | 12 h | 700 nM | 120 µM | 8 h | 33 µM | 3.3 h | 216000 nM |  |  |  |
| Cc1cc(SC2=C(O)CC(CCc3cc[nH]n3)(C(C)C)OC2=O)c(C(C)(C)C)cc1N (stereo not shown) [Example 41] | 10 | 20000 nM |  | 6.5 nM | 195000 nM |  |  |  |  |  |  |  |  |  |  |  |  |  |
| CC(C)[C@]1(CCc2cccc(F)c2)CC(O)=C(Sc2cc3sc(N)nc3cc2C(C)(C)C)C(=O)O1 [Example 83, (S)-3-(2-Amino-5-tert-butyl-benzothiazol-6-ylsulfanyl)-6-[2-(3-fluoro-phenyl)-ethyl]-4-hydroxy-6-isopropyl-5,6-dihydro-pyran-2-one] | 235 |  |  |  |  |  |  |  |  | 260 nM | 199 µM | 4 h |  |  | 61000 nM | 0.44 nM |  |  |
| Cc1cc(SC2=C(O)CC(CCc3ccc(N)cc3)(C(C)C)OC2=O)c(C(C)(C)C)cc1CO (stereo not shown) [Reference Agent 1, reference compound] | >200 |  |  |  |  | 140 µM | 1.25 h | 16 µM | 3.4 h | 500 nM | 86 µM | 3.7 h | 23 µM | 2.2 h | > 100000 nM | 0.43 nM | particularly good antiviral activity | comparatively good pharmacokinetics in mice |
| Cc1cc(SC2=C(O)CC(CCc3ccc(O)cc3)(C(C)C)OC2=O)c(C(C)(C)C)cc1CO (stereo not shown) [Reference Agent 2, reference compound] | >166 |  |  | 0.22 nM |  | 40 µM | 0.52 h | 3.4 µM | 0.55 h | 600 nM | 100 µM | 3.9 h | 17 µM | 2 h | > 100000 nM |  | particularly good antiviral activity | comparatively good pharmacokinetics in mice |
| (S)-N-[6-tert-Butyl-5-(4-hydroxy-6-isopropyl-2-oxo-6-[2-(4-hydroxy-phenyl)ethyl]-5,6-dihydro-2H-pyran-3-ylsulfanyl)-indolin-1yl]-(4-cyanophenyl)sulfonamide [Example 70] | 6 | 1300 nM |  | 0.82 nM | 8000 nM |  |  |  |  |  |  |  |  |  |  |  |  |  |
